According to US20230331781A1, “PAR4 DERIVED PEPTIDES, ANALOGS AND USES THEREOF” (Yissum Research Development Company of the Hebrew …, priority 2019, published 2023):
“Also recorded” adds a separate entry of the source. Numbered stars: 1 amine (or outer) side, 2 acyl side, 3 side chain; on linkers, the order of the positions; unused ones are H or OH. Bridge positions count the residues as written; N and C are the ends. Square brackets hold non-standard residues; d marks the D form. Ends that are not written are not given here. GlyBU(C4) = Gly building unit (N-alpha-functionalized Gly) carrying a C4 alkyl chain (n = m = 4), bridged through a urea group; CO = O=C([*:1])[*:2]

Columns and labels:
pY-EGFR = assay: PAR4 induced EGFR tyrosine phosphorylation, HEK293 cells co-transfected with flg-Par4 and gfp-egfr (Western blot); assay type: cell-based, human; settings: HEK293 cells co-transfected with hPar4 and egfr; AYPGKF 200 μM; 100 μM; FIG. 13B
Protocol: FIG. 13A—Activation of PAR4 induces phosphorylation of EGFR. HEK293 cells were co-transfected with 0.4 μg of wt flg-Par4 and 0.8 μg of gfp-egfr. Cells were serum starved over night following AYPGKF PAR4 activation (200 μM) for 5-45 min. Detection by Western blot analyses of pY-EGFR and EGFR was performed using either anti-phospho tyrosine or anti EGFR antibodies respectively. PAR4 activation induces EGFR tyrosine phosphorylation within 15 min. FIG. 13B—Pc(4-4) inhibits EGFR phosphorylation. HEK293 cells were co-transfected with 0.8 μg of wt flg-Par4 and 1 μg of gfp-egfr. Cells were serum starved over night following AYPGKF PAR4 activation (200 μM) for 5-45 min in the presence and absence of PAR4 c(4-4) (100 μM). Detection by Western blot analyses of pEGFR and EGFR was performed using either anti-phospho tyrosine or anti EGFR antibodies (1:1000 dilution) respectively. […] FIG. 13C—PAR4 mutants F347L and D349A abolish pTyr-EGFR. HEK293 cells were transiently co-transfected with either flg-Par4 or flg-Par4D349A or flg-hPar4F347L with egfr1 plasmid. Cells were serum starved over night following AYPGKF PAR4 activation (200 μM) for 5-45 min. Detection by Western blot analyses of pY-EGFR and EGFR was performed using either anti-phospho tyrosine or anti-EGFR antibodies respectively. In the presence of flg-Par4 potent pTyr-EGFR1 is observed within 15′ and 30′ AYPGKF activation. […]

PAR2 and Akt = target: T1, PAR2 and Akt (Homo sapiens, UniProt P31749); assay: PAR2-Akt association, immunoprecipitation in HEK293 cells transfected with Par2 and SLIGKV activated; assay type: cell-based; settings: HEK 293 cells, flag-hPar2, SLIGKV 200 μM; 150 μM, 1 hr prior to activation; FIG. 11
T1 construct: FLAG; expressed in transfected cells; host or cells: HEK293
T1 sequence (P31749 whole entry): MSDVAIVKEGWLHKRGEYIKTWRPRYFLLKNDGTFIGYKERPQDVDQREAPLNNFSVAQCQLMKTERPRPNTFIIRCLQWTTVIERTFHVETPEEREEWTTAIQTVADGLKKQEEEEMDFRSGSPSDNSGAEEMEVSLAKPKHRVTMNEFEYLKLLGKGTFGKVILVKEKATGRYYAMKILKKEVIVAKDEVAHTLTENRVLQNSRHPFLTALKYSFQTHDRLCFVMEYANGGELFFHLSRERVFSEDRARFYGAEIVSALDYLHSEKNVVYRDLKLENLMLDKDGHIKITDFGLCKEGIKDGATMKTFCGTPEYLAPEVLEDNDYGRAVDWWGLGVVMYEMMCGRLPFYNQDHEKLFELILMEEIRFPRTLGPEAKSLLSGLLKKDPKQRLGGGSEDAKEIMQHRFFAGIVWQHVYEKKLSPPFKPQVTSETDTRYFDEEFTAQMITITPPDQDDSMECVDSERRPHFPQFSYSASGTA
Protocol: HEK293 cells were transiently transfected with Par2 followed by SLIGKV PAR2 activation in the presence and absence of PAR4 c(4-4) at 150 μM. IP of cell lysates following different time of activation was carried out using anti PAR2 abs. Detection of Akt was performed by anti Akt abs. β-actin serves as a control gene for loading.
Briefly, HEK 293 cells were transfected with 0.8 μg flag-hPar2 and serum starved overnight. PAR(4-4) in concentration of 150 μM was applied onto the cell monolayer for 1 hr prior to PAR2 activation (by the peptide SLIGKV—200 μM) for the indicated time periods (overall transfection period is 48 hrs).
The cells (HEK 293) were solubilized and lysed and protein cell lysates (400 μg) were used for immunoprecipitation analysis, as described in Example 4.

With “Pc(4-4): backbone cyclic analog of Formula I, m=n=4, ring size 30 atoms (S[GlyBU(C4)]EFRDK[GlyBU(C4)]; bridge 2-8 via CO; not fully specified; printed as SZ1EFRDKX3)” the “inhibition of PAR4 induced pY-EGFR” value (pY-EGFR) was “potent inhibition; also recorded: potently inhibited” and the “inhibition of PAR2-AKT association (IP)” value (PAR2 and Akt) was “efficiently inhibited”.
